The source of these data is ChEMBL document CHEMBL1145676, “Isolation of two flavonoids from Tanacetum microphyllum as PMA-induced ear edema inhibitors” (1997).

Common to all, as to assay type: functional
The test system of test [1] is Mus musculus. Briefly: Inhibition of PMA-induced ear edema in Swiss mouse at 3 mg/ear after 3 hrs.
Test [2] deals with Mus musculus. Briefly: Inhibition of PMA-induced ear edema in Swiss mouse at 3 mg/ear after 1 hr.
In test [3] the test system is Mus musculus. Briefly: Inhibition of PMA-induced ear edema in Swiss mouse at 3 mg/ear after 5 hrs.

`COc1ccc(-c2oc3cc(O)c(OC)c(O)c3c(=O)c2OC)cc1` [SANTIN]: the “inhibition (INH)” value in test [1] amounted to 76.3%; in test [2], 80.5%; in test [3], 81.1%.

Turning to `COc1ccc(-c2oc3cc(O)cc(O)c3c(=O)c2OC)cc1` [ERMANIN], the “inhibition (INH)” value in test [1] is on record as 71.1%; in test [2], 95.1%; in test [3] it was 78.3%.

Turning to `COc1ccc2c(c1)c(CC(=O)O)c(C)n2C(=O)c1ccc(Cl)cc1` [INDOMETHACIN], the “inhibition (INH)” value in test [1] came out at 38.6%; in test [2], 47.3%; in test [3], 51.2%.
